In the NIST ThermoML archive (doi:10.1016/j.jct.2017.07.012):
Numbers after ± are expanded uncertainties.

Test: activity coefficient (dimensionless); of the first substance listed, at infinite dilution; xn = mol fraction of the nth substance listed
Details: 333.15 K; 101.33 kPa; Liquid; Chromatography; x1 = 0

SMILES	activity coefficient
Cc1ccccc1 [toluene] + CCCCn1cc[n+](C)c1.[O-][Cl+3]([O-])([O-])[O-]	3.14 ± 0.33
ClC(Cl)Cl [trichloromethane] + CCCCn1cc[n+](C)c1.[O-][Cl+3]([O-])([O-])[O-]	0.98 ± 0.1
CCC(C)O (stereo not given) [butan-2-ol] + CCCCn1cc[n+](C)c1.[O-][Cl+3]([O-])([O-])[O-]	2.61 ± 0.27
CO [methanol] + CCCCn1cc[n+](C)c1.[O-][Cl+3]([O-])([O-])[O-]	1.02 ± 0.1
Cc1ccc(C)cc1 [1,4-dimethylbenzene] + CCCCn1cc[n+](C)c1.[O-][Cl+3]([O-])([O-])[O-]	4.91 ± 0.52
C1=CCCCC1 [cyclohexene] + CCCCn1cc[n+](C)c1.[O-][Cl+3]([O-])([O-])[O-]	14.6 ± 1.5
CC(C)CC(C)(C)C [2,2,4-trimethylpentane] + CCCCn1cc[n+](C)c1.[O-][Cl+3]([O-])([O-])[O-]	119 ± 12
CCCCCC [hexane] + CCCCn1cc[n+](C)c1.[O-][Cl+3]([O-])([O-])[O-]	107 ± 11
C=Cc1ccccc1 [styrene] + CCCCn1cc[n+](C)c1.[O-][Cl+3]([O-])([O-])[O-]	2.29 ± 0.24
CC1CCCCC1 [methylcyclohexane] + CCCCn1cc[n+](C)c1.[O-][Cl+3]([O-])([O-])[O-]	47.3 ± 5
Cc1cccc(C)c1 [1,3-dimethylbenzene] + CCCCn1cc[n+](C)c1.[O-][Cl+3]([O-])([O-])[O-]	5.08 ± 0.53
CC#N [acetonitrile] + CCCCn1cc[n+](C)c1.[O-][Cl+3]([O-])([O-])[O-]	0.65 ± 0.07
CCCCCCCC [octane] + CCCCn1cc[n+](C)c1.[O-][Cl+3]([O-])([O-])[O-]	119 ± 13
O [water] + CCCCn1cc[n+](C)c1.[O-][Cl+3]([O-])([O-])[O-]	1.02 ± 0.1
c1ccccc1 [benzene] + CCCCn1cc[n+](C)c1.[O-][Cl+3]([O-])([O-])[O-]	2 ± 0.21
CCO [ethanol] + CCCCn1cc[n+](C)c1.[O-][Cl+3]([O-])([O-])[O-]	1.5 ± 0.16

Same assay, conditions: 343.15 K; 101.33 kPa; Liquid; Chromatography; x1 = 0

SMILES	activity coefficient
CCCCCO [pentan-1-ol] + CCCCn1cc[n+](C)c1.[O-][Cl+3]([O-])([O-])[O-]	3.55 ± 0.37
CCCCO [butan-1-ol] + CCCCn1cc[n+](C)c1.[O-][Cl+3]([O-])([O-])[O-]	2.49 ± 0.26
ClCCl [dichloromethane] + CCCCn1cc[n+](C)c1.[O-][Cl+3]([O-])([O-])[O-]	1.1 ± 0.11
CC(C)O [propan-2-ol] + CCCCn1cc[n+](C)c1.[O-][Cl+3]([O-])([O-])[O-]	1.93 ± 0.2
CCc1ccccc1 [ethylbenzene] + CCCCn1cc[n+](C)c1.[O-][Cl+3]([O-])([O-])[O-]	5.29 ± 0.56
CCOC(C)=O [ethyl acetate] + CCCCn1cc[n+](C)c1.[O-][Cl+3]([O-])([O-])[O-]	2.69 ± 0.28
ClC(Cl)(Cl)Cl [tetrachloromethane] + CCCCn1cc[n+](C)c1.[O-][Cl+3]([O-])([O-])[O-]	4.6 ± 0.48
CC(C)CCO [3-methylbutan-1-ol] + CCCCn1cc[n+](C)c1.[O-][Cl+3]([O-])([O-])[O-]	3.21 ± 0.34
CC(C)CO [2-methyl-1-propanol] + CCCCn1cc[n+](C)c1.[O-][Cl+3]([O-])([O-])[O-]	2.48 ± 0.26
CCCCCCC [heptane] + CCCCn1cc[n+](C)c1.[O-][Cl+3]([O-])([O-])[O-]	115 ± 12
CCCO [propan-1-ol] + CCCCn1cc[n+](C)c1.[O-][Cl+3]([O-])([O-])[O-]	1.87 ± 0.2
CC(C)=O [acetone] + CCCCn1cc[n+](C)c1.[O-][Cl+3]([O-])([O-])[O-]	1.05 ± 0.11
C1CCCCC1 [cyclohexane] + CCCCn1cc[n+](C)c1.[O-][Cl+3]([O-])([O-])[O-]	36.2 ± 3.8
C1COCCO1 [1,4-dioxane] + CCCCn1cc[n+](C)c1.[O-][Cl+3]([O-])([O-])[O-]	1.1 ± 0.11
C1CCOC1 [tetrahydrofuran] + CCCCn1cc[n+](C)c1.[O-][Cl+3]([O-])([O-])[O-]	1.94 ± 0.2
CCCCCCCCCC [decane] + CCCCn1cc[n+](C)c1.[O-][Cl+3]([O-])([O-])[O-]	200 ± 21
Cc1ccccc1C [1,2-dimethylbenzene] + CCCCn1cc[n+](C)c1.[O-][Cl+3]([O-])([O-])[O-]	4.27 ± 0.45

SMILES	activity coefficient
CCCCCCCCC [nonane] + CCCCn1cc[n+](C)c1.[O-][Cl+3]([O-])([O-])[O-]	135 ± 14
Cc1ccccc1 [toluene] + CCCCn1cc[n+](C)c1.[O-][Cl+3]([O-])([O-])[O-]	3.29 ± 0.35
ClC(Cl)Cl [trichloromethane] + CCCCn1cc[n+](C)c1.[O-][Cl+3]([O-])([O-])[O-]	1.1 ± 0.11
CCC(C)O (stereo not given) [butan-2-ol] + CCCCn1cc[n+](C)c1.[O-][Cl+3]([O-])([O-])[O-]	2.47 ± 0.26
CO [methanol] + CCCCn1cc[n+](C)c1.[O-][Cl+3]([O-])([O-])[O-]	1.01 ± 0.1
Cc1ccc(C)cc1 [1,4-dimethylbenzene] + CCCCn1cc[n+](C)c1.[O-][Cl+3]([O-])([O-])[O-]	5.13 ± 0.54
C1=CCCCC1 [cyclohexene] + CCCCn1cc[n+](C)c1.[O-][Cl+3]([O-])([O-])[O-]	14.4 ± 1.5
CC(C)CC(C)(C)C [2,2,4-trimethylpentane] + CCCCn1cc[n+](C)c1.[O-][Cl+3]([O-])([O-])[O-]	122 ± 13
CCCCCC [hexane] + CCCCn1cc[n+](C)c1.[O-][Cl+3]([O-])([O-])[O-]	112 ± 12
C=Cc1ccccc1 [styrene] + CCCCn1cc[n+](C)c1.[O-][Cl+3]([O-])([O-])[O-]	2.42 ± 0.25
CC1CCCCC1 [methylcyclohexane] + CCCCn1cc[n+](C)c1.[O-][Cl+3]([O-])([O-])[O-]	47.3 ± 5
Cc1cccc(C)c1 [1,3-dimethylbenzene] + CCCCn1cc[n+](C)c1.[O-][Cl+3]([O-])([O-])[O-]	5.28 ± 0.55
CC#N [acetonitrile] + CCCCn1cc[n+](C)c1.[O-][Cl+3]([O-])([O-])[O-]	0.67 ± 0.07
CCCCCCCC [octane] + CCCCn1cc[n+](C)c1.[O-][Cl+3]([O-])([O-])[O-]	122 ± 13
O [water] + CCCCn1cc[n+](C)c1.[O-][Cl+3]([O-])([O-])[O-]	1.01 ± 0.1
c1ccccc1 [benzene] + CCCCn1cc[n+](C)c1.[O-][Cl+3]([O-])([O-])[O-]	2.08 ± 0.22
CCO [ethanol] + CCCCn1cc[n+](C)c1.[O-][Cl+3]([O-])([O-])[O-]	1.45 ± 0.15

Same assay, conditions: 353.15 K; 101.33 kPa; Liquid; Chromatography; x1 = 0

SMILES	activity coefficient
CCCCCO [pentan-1-ol] + CCCCn1cc[n+](C)c1.[O-][Cl+3]([O-])([O-])[O-]	3.23 ± 0.34
CCCCO [butan-1-ol] + CCCCn1cc[n+](C)c1.[O-][Cl+3]([O-])([O-])[O-]	2.39 ± 0.25
ClCCl [dichloromethane] + CCCCn1cc[n+](C)c1.[O-][Cl+3]([O-])([O-])[O-]	1.13 ± 0.12
CC(C)O [propan-2-ol] + CCCCn1cc[n+](C)c1.[O-][Cl+3]([O-])([O-])[O-]	1.92 ± 0.2
CCc1ccccc1 [ethylbenzene] + CCCCn1cc[n+](C)c1.[O-][Cl+3]([O-])([O-])[O-]	5.35 ± 0.56
CCOC(C)=O [ethyl acetate] + CCCCn1cc[n+](C)c1.[O-][Cl+3]([O-])([O-])[O-]	2.78 ± 0.29
ClC(Cl)(Cl)Cl [tetrachloromethane] + CCCCn1cc[n+](C)c1.[O-][Cl+3]([O-])([O-])[O-]	4.67 ± 0.49
CC(C)CCO [3-methylbutan-1-ol] + CCCCn1cc[n+](C)c1.[O-][Cl+3]([O-])([O-])[O-]	2.97 ± 0.31
CC(C)CO [2-methyl-1-propanol] + CCCCn1cc[n+](C)c1.[O-][Cl+3]([O-])([O-])[O-]	2.32 ± 0.24
CCCCCCC [heptane] + CCCCn1cc[n+](C)c1.[O-][Cl+3]([O-])([O-])[O-]	121 ± 13
CCCO [propan-1-ol] + CCCCn1cc[n+](C)c1.[O-][Cl+3]([O-])([O-])[O-]	1.82 ± 0.19
CC(C)=O [acetone] + CCCCn1cc[n+](C)c1.[O-][Cl+3]([O-])([O-])[O-]	1.08 ± 0.11
C1CCCCC1 [cyclohexane] + CCCCn1cc[n+](C)c1.[O-][Cl+3]([O-])([O-])[O-]	37.5 ± 4
C1COCCO1 [1,4-dioxane] + CCCCn1cc[n+](C)c1.[O-][Cl+3]([O-])([O-])[O-]	1.14 ± 0.12
C1CCOC1 [tetrahydrofuran] + CCCCn1cc[n+](C)c1.[O-][Cl+3]([O-])([O-])[O-]	2.06 ± 0.22
CCCCCCCCCC [decane] + CCCCn1cc[n+](C)c1.[O-][Cl+3]([O-])([O-])[O-]	192 ± 20
Cc1ccccc1C [1,2-dimethylbenzene] + CCCCn1cc[n+](C)c1.[O-][Cl+3]([O-])([O-])[O-]	4.37 ± 0.46

SMILES	activity coefficient
CCCCCCCCC [nonane] + CCCCn1cc[n+](C)c1.[O-][Cl+3]([O-])([O-])[O-]	133 ± 14
Cc1ccccc1 [toluene] + CCCCn1cc[n+](C)c1.[O-][Cl+3]([O-])([O-])[O-]	3.38 ± 0.36
ClC(Cl)Cl [trichloromethane] + CCCCn1cc[n+](C)c1.[O-][Cl+3]([O-])([O-])[O-]	1.16 ± 0.12
CCC(C)O (stereo not given) [butan-2-ol] + CCCCn1cc[n+](C)c1.[O-][Cl+3]([O-])([O-])[O-]	2.37 ± 0.25
CO [methanol] + CCCCn1cc[n+](C)c1.[O-][Cl+3]([O-])([O-])[O-]	1 ± 0.1
Cc1ccc(C)cc1 [1,4-dimethylbenzene] + CCCCn1cc[n+](C)c1.[O-][Cl+3]([O-])([O-])[O-]	5.21 ± 0.55
C1=CCCCC1 [cyclohexene] + CCCCn1cc[n+](C)c1.[O-][Cl+3]([O-])([O-])[O-]	14.2 ± 1.5
CC(C)CC(C)(C)C [2,2,4-trimethylpentane] + CCCCn1cc[n+](C)c1.[O-][Cl+3]([O-])([O-])[O-]	125 ± 13
CCCCCC [hexane] + CCCCn1cc[n+](C)c1.[O-][Cl+3]([O-])([O-])[O-]	118 ± 12
C=Cc1ccccc1 [styrene] + CCCCn1cc[n+](C)c1.[O-][Cl+3]([O-])([O-])[O-]	2.5 ± 0.26
CC1CCCCC1 [methylcyclohexane] + CCCCn1cc[n+](C)c1.[O-][Cl+3]([O-])([O-])[O-]	47.8 ± 5
Cc1cccc(C)c1 [1,3-dimethylbenzene] + CCCCn1cc[n+](C)c1.[O-][Cl+3]([O-])([O-])[O-]	5.36 ± 0.56
CC#N [acetonitrile] + CCCCn1cc[n+](C)c1.[O-][Cl+3]([O-])([O-])[O-]	0.69 ± 0.07
CCCCCCCC [octane] + CCCCn1cc[n+](C)c1.[O-][Cl+3]([O-])([O-])[O-]	127 ± 13
O [water] + CCCCn1cc[n+](C)c1.[O-][Cl+3]([O-])([O-])[O-]	1 ± 0.1
c1ccccc1 [benzene] + CCCCn1cc[n+](C)c1.[O-][Cl+3]([O-])([O-])[O-]	2.17 ± 0.23
CCO [ethanol] + CCCCn1cc[n+](C)c1.[O-][Cl+3]([O-])([O-])[O-]	1.44 ± 0.15

Test: not given
Details: 303.15 K; 101.33 kPa; Liquid; Vibrating tube method

SMILES	mass density
CCCCn1cc[n+](C)c1.[O-][Cl+3]([O-])([O-])[O-] [1-butyl-3-methylimidazolium perchlorate]	1247.87 ± 2.4 kg/m3

Same assay, conditions: 313.15 K; 101.33 kPa; Liquid; Vibrating tube method

SMILES	mass density
CCCCn1cc[n+](C)c1.[O-][Cl+3]([O-])([O-])[O-] [1-butyl-3-methylimidazolium perchlorate]	1240.83 ± 2.4 kg/m3

Same assay, conditions: 323.15 K; 101.33 kPa; Liquid; Vibrating tube method

SMILES	mass density
CCCCn1cc[n+](C)c1.[O-][Cl+3]([O-])([O-])[O-] [1-butyl-3-methylimidazolium perchlorate]	1233.88 ± 2.4 kg/m3

Same assay, conditions: 333.15 K; 101.33 kPa; Liquid; Vibrating tube method

SMILES	mass density
CCCCn1cc[n+](C)c1.[O-][Cl+3]([O-])([O-])[O-] [1-butyl-3-methylimidazolium perchlorate]	1227.01 ± 2.4 kg/m3

Same assay, conditions: 343.15 K; 101.33 kPa; Liquid; Vibrating tube method

SMILES	mass density
CCCCn1cc[n+](C)c1.[O-][Cl+3]([O-])([O-])[O-] [1-butyl-3-methylimidazolium perchlorate]	1220.19 ± 2.4 kg/m3

Same assay, conditions: 353.15 K; 101.33 kPa; Liquid; Vibrating tube method

SMILES	mass density
CCCCn1cc[n+](C)c1.[O-][Cl+3]([O-])([O-])[O-] [1-butyl-3-methylimidazolium perchlorate]	1213.44 ± 2.4 kg/m3
